The text below walks through data of patent US10189840B2, “Substituted tricyclic heterocyclic compounds” (BRISTOL-MYERS SQUIBB COMPANY, priority 2015, dated 2019).

For the assay, the target named is TNFα (Homo sapiens (Human), UniProt P01375). Briefly: TNF induced HEK-Blue assay. Type of assay: cell-based. To be noted: TNFα 0.5 ng/ml; HEK-Blue-CD40L cells, NF-κB-driven secreted alkaline phosphatase reporter; 18 h. The procedure, abridged: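 Compounds at 0.004–25 μM final were preincubated 30 min with TNFα (0.5 ng/ml final) in DMEM/10% FBS. HEK-Blue-CD40L cells carrying an NF-κB-driven SEAP reporter (20,000/well) were then added for 18 h at 37 °C, 5% CO2, and SEAP was read by QUANTI-Blue at 620 nm. IC50 came from a 4-parameter logistic fit, normalized to unstimulated and stimulated DMSO controls.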
Sequence of TNFα (P01375 77-233): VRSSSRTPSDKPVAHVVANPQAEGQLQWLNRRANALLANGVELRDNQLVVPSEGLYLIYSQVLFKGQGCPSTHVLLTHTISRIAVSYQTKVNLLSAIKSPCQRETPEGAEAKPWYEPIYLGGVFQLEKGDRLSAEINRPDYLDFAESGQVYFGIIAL

As to `CC(C)(O)c1ccc(-c2ccc3nc4n(c3n2)C(c2cc(F)ccc2C(F)(F)F)CC4O)cc1` (single isomer, unassigned) [Example 13 (e3), 8-(5-fluoro-2-(trifluoromethyl)phenyl)-2-(4-(2-hydroxypropan-2-yl)phenyl)-7,8-dihydro-6H-pyrrolo[2′,1′:2,3]imidazo[4,5-b]pyridin-6-ol], the half-inhibitory concentration (IC50) (as a rule, the midpoint of a concentration-inhibition curve) is 1 to 10 µM.
Compound `CC(C)(O)c1ccc(-c2ccc3nc4n(c3n2)C(c2ccccc2C2CC2)CC4O)cc1` (single isomer, unassigned) [Example 9 (e3), 8-(2-cyclopropylphenyl)-2-(4-(2-hydroxypropan-2-yl)phenyl)-7,8-dihydro-6H-pyrrolo[2′,1′:2,3]imidazo[4,5-b]pyridin-6-ol] had an IC50 of 1 to 10 µM.
As for `CC(C)(O)c1ncc(-c2ccc3nc4n(c3n2)C(c2ccccc2OC(F)F)CC4F)cn1` (centres unmarked) [Example 16 (e3), 2-(5-(8-(2-(difluoromethoxy)phenyl)-6-fluoro-7,8-dihydro-6H-pyrrolo[2′,1′:2,3]imidazo[4,5-b]pyridin-2-yl)pyrimidin-2-yl)propan-2-ol], the figure is 10 to 25 µM; as for `CC(C)(O)c1ccc(-c2ccc3nc4n(c3n2)C(c2ccccc2OC(F)F)CC4)cc1` (single isomer, unassigned) [Example 26 (e1), 2-(4-(8-(2-(difluoromethoxy)phenyl)-7,8-dihydro-6H-pyrrolo[2′,1′:2,3]imidazo[4,5-b]pyridin-2-yl)phenyl)propan-2-ol], less than 1 µM; as for `Cn1cc(-c2ccc3nc4n(c3n2)C(c2ccccc2OC(F)F)CC4F)cn1` (centres unmarked) [Example 19 (e3), 8-(2-(difluoromethoxy)phenyl)-6-fluoro-2-(1-methyl-1H-pyrazol-4-yl)-7,8-dihydro-6H-pyrrolo[2′,1′:2,3]imidazo[4,5-b]pyridine], 1 to 10 µM.
`CC(C)(O)c1ccc(-c2ccc3nc4n(c3n2)C(c2c(F)cccc2C(F)(F)F)CC4)cc1` (racemic) [Example 32 (e2), 2-(4-(8-(2-fluoro-6-(trifluoromethyl)phenyl)-7,8-dihydro-6H-pyrrolo[2′,1′:2,3]imidazo[4,5-b]pyridin-2-yl)phenyl)propan-2-ol] yielded an IC50 of less than 1 µM.
Next, `COc1ccc(-c2ccc3nc4n(c3n2)C(c2ccccc2OC(F)F)CC4F)cn1` (centres unmarked) [Example 18 (DM), 8-(2-(difluoromethoxy)phenyl)-6-fluoro-2-(6-methoxypyridin-3-yl)-7,8-dihydro-6H-pyrrolo[2′,1′:2,3]imidazo[4,5-b]pyridine]: 1 to 10 µM; `CC(C)(O)c1ccc(-c2ccc3nc4n(c3n2)C(c2ccccc2OC(F)F)CC4O)cc1` (single isomer, unassigned) [Example 2 (e2), 8-(2-(difluoromethoxy)phenyl)-2-(4-(2-hydroxypropan-2-yl)phenyl)-7,8-dihydro-6H-pyrrolo[2′,1′:2,3]imidazo[4,5-b]pyridin-6-ol]: 1 to 10 µM.
Next, `CC(C)(O)c1ccc(-c2ccc3nc4n(c3n2)C(c2cc(F)ccc2C(F)(F)F)CC4O)cc1` (single isomer, unassigned) [Example 13 (e1), 8-(5-fluoro-2-(trifluoromethyl)phenyl)-2-(4-(2-hydroxypropan-2-yl)phenyl)-7,8-dihydro-6H-pyrrolo[2′,1′:2,3]imidazo[4,5-b]pyridin-6-ol]: less than 1 µM; `CC(C)(O)c1ncc(-c2ccc3nc4n(c3n2)C(c2ccccc2OC(F)F)CC4)cn1` (racemic) [Example 27 (rac), 2-(5-(8-(2-(difluoromethoxy)phenyl)-7,8-dihydro-6H-pyrrolo[2′,1′:2,3]imidazo[4,5-b]pyridin-2-yl)pyrimidin-2-yl)propan-2-ol]: less than 1 µM; `CC(C)(O)c1ccc(-c2ccc3nc4n(c3n2)C(c2ccccc2C(F)(F)F)CC4F)cc1` (single isomer, unassigned) [Example 14 (e1), 2-(4-(6-Fluoro-8-(2-(trifluoromethyl)phenyl)-7,8-dihydro-6H-pyrrolo[2′,1′:2,3]imidazo[4,5-b]pyridin-2-yl)phenyl)propan-2-ol]: 1 to 10 µM.
As for `COc1ccccc1C1CCc2nc3ccc(-c4cnc(N5CCN(CC(=O)O)CC5)nc4)nc3n21` (racemic) [Example 35 (rac), 2-(4-(5-(8-(2-methoxyphenyl)-7,8-dihydro-6H-pyrrolo[2′,1′:2,3]imidazo[4,5-b]pyridin-2-yl)pyrimidin-2-yl)piperazin-1-yl)acetic acid], the figure is 1 to 10 µM; as for `CC(C)(O)c1ncc(-c2ccc3nc4n(c3n2)C(c2ccccc2OC(F)F)CC4F)cn1` (centres unmarked) [Example 16 (DM), 2-(5-(8-(2-(difluoromethoxy)phenyl)-6-fluoro-7,8-dihydro-6H-pyrrolo[2′,1′:2,3]imidazo[4,5-b]pyridin-2-yl)pyrimidin-2-yl)propan-2-ol], less than 1 µM.
With `CC(C)(O)c1ncc(-c2ccc3nc4n(c3n2)C(c2ccccc2OC(F)F)CC4F)cn1` (centres unmarked) [Example 16 (e4), 2-(5-(8-(2-(difluoromethoxy)phenyl)-6-fluoro-7,8-dihydro-6H-pyrrolo[2′,1′:2,3]imidazo[4,5-b]pyridin-2-yl)pyrimidin-2-yl)propan-2-ol], the IC50 is less than 1 µM.
